Assays:
[1] = system: FITC induced contact hypersensitivity in mice; test: FITC 1 week model (FITC induced contact hypersensitivity, ear swelling); format: in vivo, Balb/C mice; conditions: oral gavage, 24 h after challenge
From the text: Fluorescein isothiocyanate (FITC) induced contact hypersensitivity (CHS) is a commonly used model for atopic dermatitis (AD). The hapten FITC is a small molecule that is able to elicit an immune response only when attached to a larger carrier such as a protein. It is reactive towards e-amino groups (lysine). The immune response to FITC sensitization and challenge is Th2 cytokine driven (IL-4, IL-5, IL-6, IL-10 and IL-13) and associated with elevated serum IgE levels. The skin inflammation at the site of the challenge is characterized by edema and eosinophil infiltrations.
Female 9 week old Balb/C mice were sensitized on days 0 and 1 with 0.5% FITC in acetone/dibuthylphtalate (A/DBP). One group (sham) was sensitized with A/DBP alone. On day 6 all the mice including the sham group were challenged on the right ear (inner and outer surface) with 0.5% FITC in A/DBP. The mice were treated with the compounds via oral gavage 1 h before and 7 h after the challenge. The baseline ear thickness was measured before the challenge and 24 h after the challenge. At the end of the experiment (24 h after the challenge) the mice were sacrificed. Serum and plasma samples were taken. The challenged ear was excised and stored at −80° C. Compounds of Formula (I) of the present invention were tested at 3, 10 and 30 mg/Kg.

[2] = system: OVA-induced lung eosinophilia in mice; test: OVA-induced lung eosinophilia in mice; format: in vivo, BALB/c mice; conditions: BAL fluid, oral gavage
Description: BALB/c mice (6-8 weeks old) were immunized with ovalbumin (10 μg i.p) on day 0 and 7. In order to elicit a local inflammatory response in the lung, mice were challenged between day's 15-17 with a nebulised solution of ovalbumin (10 μg/ml; De Vilibiss Ultraneb 2000, once daily for 30 min during the 3 days). On each separate day between 15 and 17 each animal received via oral gavage the test compound, at t−1 h and t+7 h with respect to OVA exposure at t=0 h. Eight hours after the final OVA challenge, bronchoalveolar lavage (BAL) was then carried out. Total cell numbers in the BAL fluid samples were measured using a haemocytometer. Cytospin smears of the BAL fluid samples were prepared by centrifugation at 1200 rpm for 2 min at room temperature and stained using a DiffQuik stain system (Dade Behring) for differential cell counts. […]

[3] = In vivo pharmacokinetic evaluation in rat; design: species or system Sprague Dawley male rats
Description: In order to study the pharmacokinetic (PK) profile of test compounds in vivo, Sprague Dawley male rats or C57BL/6 female mice were dosed intravenously or after oral gavage. For both species, test compounds were dosed in solution at 1 mg/kg for i.v. route (10% ethanol, 10% N,N-dimethylacetamide, 30% propylene glycol, 50% water, v/v) and in suspension at 5 mg/kg (0.5% carboxymethylcellulose suspension, containing 0.25% Tween 20 in water) for oral gavage. PK profile in rat was obtained from 3 animals per dosing route and mouse PK profile was determined from 3 animals for each time points. The volume of administration was 2 mL/kg for i.v. dosing in both species and either 5 mL/kg (rat) or 10 mL/kg (mouse) for oral gavage. Blood samples (100 μL/time point) were collected at 0.083 (5 min), 0.25, 0.5, 1, 4, 7 and 24 hours post-dose for i.v. dosing, and at 0.5, 1, 4, 7 and 24 h for oral dosing, into heparin-Li+ containing tubes. For rats, all blood samples were collected trough a catheter in the carotid artery (placed in the artery the day before the experiment), under light isoflurane anesthesia, and stored on ice until centrifugation and plasma isolation. […] For bioanalysis, samples were processed by protein precipitation (acetonitrile, formic acid 0.1%, addition of 3 volumes) after addition of one internal standard and analysed using a sensitive and selective LC/MS/MS method. An aliquot of the resulting supernatant was subject to LC/MS/MS analysis using a reverse phase column (Waters Xterra, C8, (3.5 μm particle size, 2.1×50 mm) and a short gradient (1 min) from (Solvent A) 85% water, 15% acetonitrile and 0.1% formic acid to (Solvent B) 90% acetonitrile, 10% water and 0.1% formic acid followed by isocratic conditions of Solvent B for 3.5 min at 0.4 mL/min. Column effluent was monitored using a Sciex API 4000 triple quadrupole mass spectrometer with a Turbo V electrospray ion source. Unknown concentrations of test compounds were determined using a calibration curve ranging from 1 to 3000 ng/mL.

SMILES | % inhibition of ear swelling (mean ± s.e.m.) ([1]; dose 3 mg/kg) [%] | % inhibition of ear swelling (mean ± s.e.m.) ([1]; dose 10 mg/kg) [%] | % inhibition of ear swelling (mean ± s.e.m.) ([1]; dose 30 mg/kg) [%] | % inhibition eosinophils (mean ± s.e.m.) ([2]; dose 3 mg/kg) [%] | % inhibition total cells (mean ± s.e.m.) ([2]; dose 3 mg/kg) [%] | % inhibition eosinophils (mean ± s.e.m.) ([2]; dose 10 mg/kg) [%] | % inhibition total cells (mean ± s.e.m.) ([2]; dose 10 mg/kg) [%] | % inhibition eosinophils (mean ± s.e.m.) ([2]; dose 30 mg/kg) [%] | % inhibition total cells (mean ± s.e.m.) ([2]; dose 30 mg/kg) [%] | Oral bioavailability [3] [%] | Clearance iv (1 mg/Kg) ([3]; i.v. 1 mg/Kg) [L/h/kg] | AUC ([3]; male, Sprague Dawley, plasma, oral gavage 5 mg/Kg) [µg·h/mL]
O=C(O)COc1ccc(Cl)cc1C#Cc1ccc2c(c1)S(=O)(=O)c1ccccc1-2 [Example 154, {4-chloro-2-[(5,5-dioxidodibenzo[b,d]thien-3-yl)ethynyl]phenoxy}acetic acid] | 41 ± 9 | 49 ± 9 | 54 ± 17 | – | – | – | – | – | – | – | – | –
CCCS(=O)(=O)c1ccc(C)c(C#Cc2cc(Cl)ccc2OCC(=O)O)c1 [Example 38, (4-chloro-2-{[2-methyl-5-(propylsulfonyl)phenyl]ethynyl}phenoxy)acetic acid] | 23 ± 16 | 56 ± 12 | 52 ± 12 | 29 ± 14 | 21 ± 13 | 54 ± 16 | 42 ± 14 | 81 ± 7 | 67 ± 8 | – | – | –
CCCS(=O)(=O)c1cccc(C#Cc2cc(Cl)ccc2OCC(=O)O)c1 [Example 17, (4-chloro-2-{[3-(propylsulfonyl)phenyl]ethynyl}phenoxy)acetic acid] | – | – | – | – | – | – | – | – | – | 28 | 0.4 | 3.7
CCCS(=O)(=O)c1ccc(F)c(C#Cc2cc(Cl)ccc2OCC(=O)O)c1 [Example 89, (4-chloro-2-{[2-fluoro-5-(propylsulfonyl)phenyl]ethynyl}phenoxy)acetic acid] | 36 ± 19 | 54 ± 16 | 48 ± 11 | 19 ± 18 | 12 ± 15 | 27 ± 10 | 19 ± 8 | 55 ± 11 | 44 ± 10 | – | – | –

From patent publication US8273769B2, “Phenoxy acetic acid derivatives” (Merck Serono SA, priority 2009, dated 2012)
